In PubChem BioAssay (NCI):
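These data come from cells grown in 96-well plates and exposed to compound for 48 hours at five concentrations. TGI denotes the concentration required for complete inhibition of growth.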

Assays:
Experiment in all cases: inhibition of tumour cell growth, NCI panel, 48 h
A498 renal = tested on: A498 renal
CAKI-1 renal = tested on: CAKI-1 renal
HCC-2998 colon = tested on: HCC-2998 colon
HCT-15 colon = tested on: HCT-15 colon
M14 melanoma = tested on: M14 melanoma
MOLT-4 leukemia = tested on: MOLT-4 leukemia
NCI-H23 lung = tested on: NCI-H23 lung
NCI/ADR-RES ovarian = tested on: NCI/ADR-RES ovarian
OVCAR-3 ovarian = tested on: OVCAR-3 ovarian
SR leukemia = tested on: SR leukemia

Measured: TGI

CC[P+]1(c2ccccc2)[C@@H](C)CC[C@@H]1C
> 100 µM: A498 renal | CAKI-1 renal | HCC-2998 colon | HCT-15 colon | M14 melanoma | MOLT-4 leukemia | NCI-H23 lung | NCI/ADR-RES ovarian | OVCAR-3 ovarian | SR leukemia

CCOC(=O)c1c(N2CCCC2)ncn(C)c1=S
> 100 µM: A498 renal | CAKI-1 renal | HCC-2998 colon | HCT-15 colon | M14 melanoma | MOLT-4 leukemia | NCI-H23 lung | NCI/ADR-RES ovarian | OVCAR-3 ovarian | SR leukemia
